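All cell lines were grown in 96-well plates and treated with compound for 48 hours. TGI denotes the concentration required for complete inhibition of growth.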
Columns and labels:
Test in all cases: NCI anticancer screen, dose series, 48 h
786-0 renal = test system: 786-0 renal
A498 renal = test system: A498 renal
A549 NSCLC = test system: A549 NSCLC
ACHN renal = test system: ACHN renal
CAKI-1 renal = test system: CAKI-1 renal
CCRF-CEM leukemia = test system: CCRF-CEM leukemia
COLO 205 colon = test system: COLO 205 colon
DLD-1 colon = test system: DLD-1 colon
DMS 114 small cell lung = test system: DMS 114 small cell lung
DMS 273 small cell lung = test system: DMS 273 small cell lung
EKVX NSCLC = test system: EKVX NSCLC
HCC-2998 colon = test system: HCC-2998 colon
HCT-116 colon = test system: HCT-116 colon
HCT-15 colon = test system: HCT-15 colon
HL-60(TB) leukemia = test system: HL-60(TB) leukemia
HOP-18 NSCLC = test system: HOP-18 NSCLC
HOP-62 NSCLC = test system: HOP-62 NSCLC
HOP-92 NSCLC = test system: HOP-92 NSCLC
HT29 colon = test system: HT29 colon
IGROV1 ovarian = test system: IGROV1 ovarian
K-562 leukemia = test system: K-562 leukemia
KM12 colon = test system: KM12 colon
KM20L2 colon = test system: KM20L2 colon
LOX IMVI melanoma = test system: LOX IMVI melanoma
LXFL 529 NSCLC = test system: LXFL 529 NSCLC
M14 melanoma = test system: M14 melanoma
M19-MEL melanoma = test system: M19-MEL melanoma
MALME-3M melanoma = test system: MALME-3M melanoma
MOLT-4 leukemia = test system: MOLT-4 leukemia
NCI-H226 lung = test system: NCI-H226 lung
NCI-H23 lung = test system: NCI-H23 lung
NCI-H460 lung = test system: NCI-H460 lung
NCI-H522 lung = test system: NCI-H522 lung
OVCAR-3 ovarian = test system: OVCAR-3 ovarian
OVCAR-4 ovarian = test system: OVCAR-4 ovarian
OVCAR-5 ovarian = test system: OVCAR-5 ovarian
OVCAR-8 ovarian = test system: OVCAR-8 ovarian
RPMI-8226 leukemia = test system: RPMI-8226 leukemia
RXF 393 renal = test system: RXF 393 renal
SF-268 CNS = test system: SF-268 CNS
SF-295 CNS = test system: SF-295 CNS
SF-539 CNS = test system: SF-539 CNS
SK-MEL-2 melanoma = test system: SK-MEL-2 melanoma
SK-MEL-28 melanoma = test system: SK-MEL-28 melanoma
SK-MEL-5 melanoma = test system: SK-MEL-5 melanoma
SK-OV-3 ovarian = test system: SK-OV-3 ovarian
SN12C renal = test system: SN12C renal
SNB-19 CNS = test system: SNB-19 CNS
SNB-75 CNS = test system: SNB-75 CNS
SNB-78 CNS = test system: SNB-78 CNS
SW-620 colon = test system: SW-620 colon
TK-10 renal = test system: TK-10 renal
U251 CNS = test system: U251 CNS
UACC-257 melanoma = test system: UACC-257 melanoma
UO-31 renal = test system: UO-31 renal
XF 498 CNS = test system: XF 498 CNS
SR leukemia = test system: SR leukemia
UACC-62 melanoma = test system: UACC-62 melanoma

Measured: TGI

CC12CCc3ccccc3C1=NNC(=O)C2 (stereo not drawn)
not listed: SR leukemia | UACC-62 melanoma
> 100 µM: all other assays above

N#CC(/C(CCCC(=O)Nc1cccc([N+](=O)[O-])c1)=N\NC(=O)c1c(O)ccc2ccccc12)c1nc2ccccc2s1 (stereo not drawn)
24.1 µM: HL-60(TB) leukemia
66.3 µM: SF-539 CNS
95.4 µM: HOP-62 NSCLC
93.1 µM: SK-MEL-5 melanoma
34.5 µM: DMS 114 small cell lung
46.6 µM: M19-MEL melanoma
68.3 µM: DMS 273 small cell lung
72 µM: NCI-H226 lung
not listed: HCC-2998 colon | HCT-15 colon | LOX IMVI melanoma | RPMI-8226 leukemia | TK-10 renal | UACC-62 melanoma
> 100 µM: all other assays above

Cc1cc(Br)ccc1N=Nc1c(C)nn(-c2ccccc2)c1-c1ccccc1
not listed: HCC-2998 colon | KM20L2 colon | NCI-H226 lung
> 100 µM: all other assays above

O=C(CCc1ccccc1)CC1OC(=O)C(Cl)=C1Cl (stereo not drawn)
38.1 µM: OVCAR-3 ovarian
55.6 µM: HOP-62 NSCLC
58.2 µM: HT29 colon
96.2 µM: NCI-H460 lung
31.7 µM: UACC-62 melanoma
59.1 µM: CAKI-1 renal
26.5 µM: KM20L2 colon
28.5 µM: NCI-H522 lung
37.5 µM: 786-0 renal
32.9 µM: SK-MEL-28 melanoma
41.4 µM: XF 498 CNS
33.1 µM: MALME-3M melanoma
66.2 µM: A498 renal
88 µM: K-562 leukemia
38.6 µM: ACHN renal
57.7 µM: TK-10 renal
44 µM: DMS 273 small cell lung
41 µM: OVCAR-8 ovarian
79.9 µM: SF-268 CNS
40.8 µM: IGROV1 ovarian
33.8 µM: KM12 colon | M19-MEL melanoma
76.7 µM: SF-539 CNS
53.4 µM: NCI-H23 lung
30.9 µM: COLO 205 colon
29.4 µM: LXFL 529 NSCLC
32.8 µM: DLD-1 colon
31 µM: M14 melanoma
25.1 µM: SW-620 colon
30.3 µM: HCT-15 colon
34 µM: UO-31 renal
66.1 µM: EKVX NSCLC
59.8 µM: RXF 393 renal
38 µM: SNB-19 CNS
40.2 µM: LOX IMVI melanoma
38.3 µM: SN12C renal
30.4 µM: U251 CNS
36.1 µM: SK-MEL-2 melanoma
87.4 µM: SF-295 CNS
59.6 µM: HOP-18 NSCLC
35 µM: OVCAR-5 ovarian
28 µM: HCT-116 colon
47 µM: SK-MEL-5 melanoma
41.1 µM: HOP-92 NSCLC | UACC-257 melanoma
32.6 µM: HCC-2998 colon
not listed: DMS 114 small cell lung | HL-60(TB) leukemia | NCI-H226 lung
> 100 µM: all other assays above
